# According to US4229466A, “Sesquiterpene derivatives having anti-complementary activity” (Otsuka Pharmaceutical Co., Ltd., priority 1977, dated 1980):
# Values joined by “and” are separate entries in the source; they are usually repeats but may differ in a detail not shown here. Identical values can stand only once.
# Assays:
# [1] = test system: Nephrotoxin-Type Nephritis; experiment: Therapeutic effect on nephrotoxin-type nephritis (proteinuria); type: in vivo, male Wistar rats; details: 7 days; for amount of proteinurea, Average: average of 3 replications; for amount of proteinurea: individual replication
# Description: Rat nephrotoxin ("NT" for brevity) was obtained as described below. Rat kidney cortex was homogenized with an equal quantity of physiological saline. The homogenized mixture was mixed with Freund's complete adjuvant (a product of Difco Company) in a volume ratio of 1:1. Two milliliters of the resulting mixture was intramuscularly injected into a rabbit (body weight 3,100 g) to immunize the rabbit. A month and a half later, blood was taken from the heart of the rabbit and serum was obtained. The resulting serum was inactivated at 56° C. for 30 minutes, then salted out with a 40% saturated aqueous solution of ammonium sulfate, and fractionated. The γ-globulin (IgG) fraction was collected to obtain NT.
# The evaluation was carried out using male Wistar rats with a body weight of 150 to 160 g with three replications for each test compound. The test compound was intraperitoneally administered once every 24 hours for seven days. One hour after the administration of the test compound on the third day, the NT was applied. The NT was intravenously injected in an amount of 1 ml at a tail vein of each rat. Chlorophyllin (CP) was used as a comparison compound, and physiological saline solution was used as a control.
# The proteinuria level (total amount excreted into the urine over a 24 hour period) was measured using turbidometry employing bovine serum albumin as a control by means of sulfosalicylic acid.
# [2] = Acute toxicity on intravenous administration to mice; details: mouse, in vivo
# [3] = test system: complement serum (guinea pig complement); experiment: Anti-complement activity: 50% inhibition of hemolysis of sensitized erythrocytes; type: cell-based; details: Cavia porcellus, Erythrocyte, 1 h, 37° C., 60 minutes, guinea pig complement diluted 150 times, OD413, read-out: Anti-Complement Activity Value (50% hemolysis inhibitory activity value)
# Description: The anti-complement activity was measured and confirmed by the testing method described in Meneki Kagaku (Immuno-Chemistry), Yuichi Yamamura et al., Ed. pages 830-834, Asakura Shoten, Tokyo, Japan (1973). Specifically,a test tube was charged with 0.5 ml of an aqueous dispersion of each of the test compounds, 0.5 ml of sensitized erythrocytes (EA) containing 1×10^8 cells/ml, 1 ml of a 5-fold diluted solution of a Veronal buffer solution containing gelatin, Ca^++ and Mg^++ (GVB^++), and 0.5 ml of complement serum (guinea pig complement) diluted to 150 times with the GVB^++. The mixture was maintained hot at 37° C. for 60 minutes. Then, 5 ml of an ice-cold physiological saline solution was added thereto, and the mixture was centrifuged. […] The 50% hemolysis inhibitory activity value (γ/ml) measured by the above method is shown in Table 2 below for each test compound.
# Heymann-type Nephritis = experiment: Therapeutic effects on Heymann-type nephritis (proteinuria); type: in vivo, male Wistar rats; details: for amount of proteinurea, Average: average of 3 replications; for amount of proteinurea: individual replication
# Description: Male Wistar rats with a body weight of 180 to 200 g were used in the test. Rat kidney cortex was extracted, and homogenized with an equal quantity by volume of a physiological saline solution. The homogenate was centrifuged at 1500 G for 1 hour. The supernatant liquid was purified in accordance with the method of T. S. […] The resulting mixture was injected intraperitoneally into isologous rats in an amount of 0.5 ml per rat. […] (This period was about 6 to 8 weeks.) […] CP was used as a comparison compound, and physiological saline solution was used as a control. Three replications were conducted for each test compound.
# [4] = Day 1, 3 mg per rat i.p. once daily
# [5] = Day 4, 3 mg per rat i.p. once daily
# [6] = Day 7, 3 mg per rat i.p. once daily
# [7] = Day 10, 3 mg per rat i.p. once daily
# [8] = Before Administration, group of 3 mg per rat i.p.
# [9] = Day 1, 3 mg per rat i.p. once a day, 7 days
# [10] = Day 4, 3 mg per rat i.p. once a day, 7 days
# [11] = Day 7, 3 mg per rat i.p. once a day, 7 days
# [12] = Day 14, 3 mg per rat i.p. once a day, 7 days
# [13] = Day 21, 3 mg per rat i.p. once a day, 7 days
# [14] = Day 1, 5 mg per rat i.p. once daily
# [15] = Day 4, 5 mg per rat i.p. once daily
# [16] = Day 7, 5 mg per rat i.p. once daily
# [17] = Day 10, 5 mg per rat i.p. once daily
# [18] = Before Administration, group of 5 mg per rat i.p.
# [19] = Day 1, 5 mg per rat i.p. once a day, 7 days
# [20] = Day 4, 5 mg per rat i.p. once a day, 7 days
# [21] = Day 7, 5 mg per rat i.p. once a day, 7 days
# [22] = Day 14, 5 mg per rat i.p. once a day, 7 days
# [23] = Day 21, 5 mg per rat i.p. once a day, 7 days
Compound,LD50 [2] [mg/kg],IC50 [3] [µg/mL],"amount of proteinurea, Average [1, 14] [mg/day]","amount of proteinurea [1, 14]","amount of proteinurea, Average [1, 15] [mg/day]","amount of proteinurea [1, 15]","amount of proteinurea, Average [1, 16] [mg/day]","amount of proteinurea [1, 16]","amount of proteinurea, Average [1, 17] [mg/day]","amount of proteinurea [1, 17]","amount of proteinurea, Average (Heymann-type Nephritis; [18]) [mg/day]",amount of proteinurea (Heymann-type Nephritis; [18]),"amount of proteinurea, Average (Heymann-type Nephritis; [19]) [mg/day]",amount of proteinurea (Heymann-type Nephritis; [19]),"amount of proteinurea, Average (Heymann-type Nephritis; [20]) [mg/day]",amount of proteinurea (Heymann-type Nephritis; [20]),"amount of proteinurea, Average (Heymann-type Nephritis; [21]) [mg/day]",amount of proteinurea (Heymann-type Nephritis; [21]),"amount of proteinurea, Average (Heymann-type Nephritis; [22]) [mg/day]",amount of proteinurea (Heymann-type Nephritis; [22]),other results
"CC1CCC2C(C)(C)C(O)C(O)CC2(C)C12Cc1c(O)cc(C=O)c(C=O)c1O2 (stereo not drawn) [(1), 6,7-Dihydroxy-2,5,5,8a-tetramethyl-1,2,3,4,4a,5,6,7,8,8a-decahydronaphthalene-1-spiro-2'-(6',7'-diformyl-4'-hydroxy-2',3'-dihydrobenzofuran)]",40,10,,,,,,,,,,,,,,,,,,,"amount of proteinurea, Average [1, 4]: 2.8 mg/day; amount of proteinurea [1, 4]: 2.5 mg/day and 4.3 mg/day and 1.7 mg/day; amount of proteinurea, Average [1, 5]: 1.6 mg/day; amount of proteinurea [1, 5]: 1.5 mg/day and 2.1 mg/day and 1.1 mg/day; amount of proteinurea, Average [1, 6]: 1.2 mg/day; amount of proteinurea [1, 6]: 0.8 mg/day and 1.8 mg/day and 0.9 mg/day; amount of proteinurea, Average [1, 7]: 8 mg/day; amount of proteinurea [1, 7]: 8 mg/day and 10 mg/day and 7 mg/day; amount of proteinurea, Average (Heymann-type Nephritis; [8]): 116 mg/day; amount of proteinurea (Heymann-type Nephritis; [8]): 95 mg/day and 132 mg/day and 121 mg/day; amount of proteinurea, Average (Heymann-type Nephritis; [9]): 111 mg/day; amount of proteinurea (Heymann-type Nephritis; [9]): 90 mg/day and 125 mg/day and 120 mg/day; amount of proteinurea, Average (Heymann-type Nephritis; [10]): 61 mg/day; amount of proteinurea (Heymann-type Nephritis; [10]): 47 mg/day and 65 mg/day and 70 mg/day; amount of proteinurea, Average (Heymann-type Nephritis; [11]): 26 mg/day; amount of proteinurea (Heymann-type Nephritis; [11]): 17 mg/day and 35 mg/day and 27 mg/day; amount of proteinurea, Average (Heymann-type Nephritis; [12]): 11 mg/day; amount of proteinurea (Heymann-type Nephritis; [12]): 9 mg/day and 15 mg/day and 10 mg/day; amount of proteinurea, Average (Heymann-type Nephritis; [13]): 10 mg/day; amount of proteinurea (Heymann-type Nephritis; [13]): 10 mg/day and 12 mg/day and 9 mg/day"
"CCOC(=O)C(C#N)=Cc1cc(O)c2c(c1C=C(C#N)C(=O)OCC)OC1(C2)C(C)CCC2C(C)(C)C(O)C(O)CC21C (stereo not drawn) [(4), 6,7-Dihydroxy-2,5,5,8a-tetramethyl-1,2,3,4,4a,5,6,7,8,8a-decahydronaphthalene-1-spiro-2'-[6',7'-di-(2-cyano-2-ethoxycarbonylvinyl)-4'-hydroxy-2',3'-dihydrobenzofuran]]",200,80,,,,,,,,,,,,,,,,,,,
"CC1CCC2C(C)(C)C(O)C(O)CC2(C)C12Cc1c(O)cc(C=C(C#N)C(=O)O)c(C=C(C#N)C(=O)O)c1O2 (stereo not drawn) [(6), 6,7-Dihydroxy-2,5,5,8a-tetramethyl-1,2,3,4,4a,5,6,7,8,8a-decahydronaphthalene-1-spiro-2'-[6',7'-di-(2-cyano-2-carboxyvinyl)-4'-hydroxy-2',3'-dihydrobenzofuran]]",250,40,2.5,2.1 mg/day and 1.5 mg/day and 3.7 mg/day,1.8,1.9 mg/day and 1.2 mg/day and 2.3 mg/day,1.0,0.8 mg/day and 0.9 mg/day and 1.4 mg/day,10,13 mg/day and 7 mg/day and 9 mg/day,121,98 mg/day and 127 mg/day and 139 mg/day,116,113 mg/day and 121 mg/day and 116 mg/day,56,48 mg/day and 63 mg/day and 57 mg/day,37,36 mg/day and 47 mg/day and 29 mg/day,17,18 mg/day and 21 mg/day and 13 mg/day,"amount of proteinurea, Average (Heymann-type Nephritis; [23]): 12 mg/day; amount of proteinurea (Heymann-type Nephritis; [23]): 8 mg/day and 15 mg/day and 14 mg/day"
"CC1CCC2C(C)(C)C(O)C(O)CC2(C)C12Cc1c(O)cc(C=O)c(C(=O)O)c1O2 (stereo not drawn) [(67), Disodium 6,7-dihydroxy-2,5,5,8a-tetramethyl-1,2,3,4,4a,5,6,7,8,8a-decahydronaphthalene-1-spiro-2'-(7'carboxylate-6'-formyl-4'-oxide-2',3'-dihydrobenzofuran)]",500,60,3.0,2.7 mg/day and 4.1 mg/day and 2.3 mg/day,1.7,1.8 mg/day and 2.0 mg/day and 1.3 mg/day,1.1,0.7 mg/day and 1.5 mg/day and 1.2 mg/day,9,9 mg/day and 12 mg/day and 7 mg/day,118,117 mg/day and 132 mg/day and 105 mg/day,117,109 mg/day and 127 mg/day and 114 mg/day,59,59 mg/day and 67 mg/day and 51 mg/day,30,23 mg/day and 41 mg/day and 25 mg/day,14,13 mg/day and 17 mg/day and 11 mg/day,"amount of proteinurea, Average (Heymann-type Nephritis; [23]): 11 mg/day; amount of proteinurea (Heymann-type Nephritis; [23]): 9 mg/day and 13 mg/day and 12 mg/day"
"CC1CCC2C(C)(C)C(O)C(O)CC2(C)C12Cc1c(O)cc(O)c(O)c1O2 (stereo not drawn) [(2), 6,7-Dihydroxy-2,5,5,8a-tetramethyl-1,2,3,4,4a,5,6,7,8,8a-decahydronaphthalene-1-spiro-2'-(4',6',7'-trihydroxy-2',3'-dihydrobenzofuran)]",150,80,,,,,,,,,,,,,,,,,,,
"CC1CCC2C(C)(C)C(O)C(O)CC2(C)C12Cc1c(O)cc(C=C(C#N)C#N)c(C=C(C#N)C#N)c1O2 (stereo not drawn) [(3), 6,7-Dihydroxy-2,5,5,8a-tetramethyl-1,2,3,4,4a,5,6,7,8,8a-decahydronaphthalene-1-spiro-2'-[6',7'-di-(2,2-dicyanovinyl)-4'-hydroxy-2',3'-dihydrobenzofuran]]",200,40,,,,,,,,,,,,,,,,,,,
